In patent publication US9233933B2, “4,4-disubstituted-1,4-dihydropyrimidines and the use thereof as medicaments for the treatment of hepatitis B” (priority 2012, dated 2016):
pEC50: −log10 of the molar value. Read-outs that look alike come from different tables or passages of the source.

How the values were obtained:
HBV [1] = assay: anti-HBV activity in stable transfected HepG2.2.15 cell line, HBV DNA from secreted virions by realtime PCR; assay type: cell-based, Hepatitis B virus; settings: HepG2.2.15 cells, 6 days of treatment, secreted virion HBV DNA, read-out: HBV-HepG2 2.15 EC50
HepG2 cells [2] = assay: Cytotoxicity in HepG2 cells using CellTiter-Blue, same incubation period as HepG2.2.15 assay; assay type: cell-based; settings: HepG2 cells, 6 days, CellTiter-Blue; read-out: HepG2 6 days CC50
Description: (§1) Cytotoxicity of the compounds was tested in HepG2 cells using CellTiter-Blue, with the same incubation period and dose range as in the HepG2.2.15 assay.

HBV [3] = assay: anti HBV activity in HepG2.117 cell line (Tet-off, inducibly HBV producing), intracellular HBV DNA by realtime PCR; assay type: cell-based, Hepatitis B virus; settings: HepG2.117 cells, 3 days of treatment, intracellular HBV DNA, read-out: HepG2 117 EC50
HepG2 cells [4] = assay: Cytotoxicity in HepG2 cells incubated 4 days, Resazurin assay; settings: read-out: HepG2 4 days CC50
[5] = Cytotoxicity in HepG2 cells using CellTiter-Blue, same incubation period as HepG2.2.15 assay; assay type: cell-based; settings: human, HepG2 6 days CC50
Description: as §1

in vitro = settings: human, HepG2 4 days CC50
HepG2 cells [6] = settings: human, 4 days
[7] = Hepatitis B virus, HepG2.117, 72 h
[8] = Hepatitis B virus, HepG2.2.15, 144 h

| Structure (SMILES) | pEC50 (HBV [1]) | CC50 (HepG2 cells [2]) [µM] | pEC50 (HBV [3]) | CC50 (HepG2 cells [4]) [µM] | CC50 at 6 days [5] [µM] | pEC50 (HBV [3]; [7]) | CC50 at 4 days (in vitro) [µM] | pEC50 (HBV [1]; [8]) | CC50 (HepG2 cells [6]) [µM] |
| --- | --- | --- | --- | --- | --- | --- | --- | --- | --- |
| CCOC(=O)C1=C(CN2CCOCC2)NC(c2ccccn2)=NC1(C)c1ccc(F)cc1 (racemic) [Compound 4a] | < 4.00 | 92 |  |  |  |  |  |  |  |
| CCOC(=O)C1=C(CN2CCOCC2)NC(c2ccccn2)=NC1(C)c1ccc(F)cc1 (racemic) [Compound 4b] | 6.19 | 92.4 | 6.12 | > 50 |  |  |  |  |  |
| CCOC(=O)C1=C(CN2CCOCC2)NC(c2ccccn2)=NC1(c1ccc(F)cc1)C(F)(F)F (racemic) [Compound 34] | 4.79 | 20 |  |  |  |  |  |  |  |
| CCOC(=O)C1=C(CN2CCOCC2)NC(c2ccccn2)=NC1(c1ccc(F)cc1)C(F)(F)F (racemic) [Compound 34a] | < 4.00 | 30.9 |  |  |  |  |  |  |  |
| CCOC(=O)C1=C(CN2CCOCC2)NC(c2ccccn2)=NC1(c1ccc(F)cc1)C(F)(F)F (racemic) [Compound 34b] | 5.08 | 41.6 |  |  |  |  |  |  |  |
| N#CC1=C(CN2CCOCC2)NC(c2ccccn2)=NC12CCCc1cc(F)ccc12 (single isomer, unassigned) [Compound 60b] | 5.65 | > 100 | 5.89 | > 100 |  |  |  |  |  |
| COC(=O)C1=C(C)NC(c2ncc(F)cc2F)=NC12c1ccccc1OC2(F)F (single isomer, unassigned) [Compound 106a] | < 4.00 |  |  |  | > 100 | < 4.30 | > 50 |  |  |
| COC(=O)C1=C(C)NC(c2ncc(F)cc2F)=NC12CC(C)(C)c1ccccc12 (single isomer, unassigned) [Compound 134a] | 4.04 |  |  |  | 53 | < 4.30 | > 50 |  |  |
| COC(=O)C1=C(C)NC(c2ncc(F)cc2F)=NC1(c1ccc(F)c(F)c1)C(F)F (single isomer, unassigned) [Compound 151b] | 5.37 |  | 5.43 | > 25 |  |  |  |  |  |
| COC(=O)C1=C(C)NC(c2ncccc2F)=NC1(C)c1ccc(F)c(F)c1 (single isomer, unassigned) [Compound 158b] |  |  | < 4.60 | > 25 |  |  |  | < 4.00 |  |
| COC(=O)C1=C(C)NC(c2ncccn2)=NC1(C)c1ccc(F)c(F)c1 (single isomer, unassigned) [Compound 159b] | < 4.00 |  | < 4.60 | > 25 |  |  |  |  |  |
| COC(=O)C1=C(C)NC(SC)=NC1(C)c1ccc(F)c(F)c1 (single isomer, unassigned) [Compound 160b] | 6.35 |  | 4.98 | > 25 |  |  |  |  |  |
| COC(=O)C1=C(C#N)NC(c2ncc(F)cc2F)=NC1(C)c1ccc(F)c(F)c1 (single isomer, unassigned) [Compound 163b] | < 4.00 |  | < 4.60 | > 25 |  |  |  |  |  |
| COC(=O)C1=C(C)NC(c2nccs2)=NC12C(F)=Cc1c2ccc(F)c1F (single isomer, unassigned) [Compound 174b] |  |  | < 4.60 |  |  |  |  |  | > 25 |
| COC(=O)C1=C(C)NC(c2ncc(F)cc2F)=NC1(C)c1ccc(F)c(F)c1 (stereo not shown) [132b •MsOH] |  |  |  | > 25 |  | 6.10 |  | 6.16 |  |
| COC(=O)C1=C(C)NC(c2ncc(F)cc2F)=NC1(C)c1ccc(Cl)c(F)c1 (stereo not shown) [156 •MsOH] | 5.71 |  | 5.96 | > 25 |  |  |  |  |  |
| CCOC(=O)C1=C(CN2CCOCC2)NC(c2ccccn2)=NC12CCc1cc(F)ccc12 (stereo not shown) [Compound 39] |  |  |  |  | 62.9 | 6.39 | > 100 | 6.39 |  |
| CCOC(=O)C1=C(CN2CCOCC2)NC(c2ccccn2)=NC12CCC(C)(C)c1ccccc12 (stereo not shown) [Compound 56] |  |  |  |  | 36.4 | 4.28 | > 100 | 4.45 |  |

| Structure (SMILES) | pEC50 (HBV [1]) | CC50 (HepG2 cells [2]) [µM] | pEC50 (HBV [3]) | CC50 (HepG2 cells [4]) [µM] | CC50 at 6 days [5] [µM] | pEC50 (HBV [3]; [7]) | CC50 at 4 days (in vitro) [µM] | pEC50 (HBV [1]; [8]) | CC50 (HepG2 cells [6]) [µM] |
| --- | --- | --- | --- | --- | --- | --- | --- | --- | --- |
| CCOC(=O)C1=C(CN2CCOCC2)NC(c2ccccn2)=NC12CCCc1ccc(F)cc12 (stereo not shown) [Compound 59] |  |  |  |  | 68.9 | 4.33 | > 100 | 4.23 |  |
| COC(=O)C1=C(CN2CCOCC2)NC(c2ccccn2)=NC12CCC(C)(C)c1ccccc12 (stereo not shown) [Compound 72] |  |  |  |  | 71.1 | 4.14 | > 100 | 4.27 |  |
| COC(=O)C1=C(CN2CCOCC2)NC(c2ccccn2)=NC12CCCc1cc(F)ccc12 (stereo not shown) [Compound 74] |  |  |  |  | 78.3 | 5.88 | > 100 | 5.69 |  |
| COC(=O)C1=C(C)NC(c2ccccn2)=NC12CCOc1ccccc12 (stereo not shown) [Compound 85] |  |  |  |  | > 100 | < 4.30 | > 50 | < 4.00 |  |
| COC(=O)C1=C(CN2CCOCC2)NC(c2ccccn2)=NC12CCOc1ccccc12 (stereo not shown) [Compound 86] |  |  |  |  | > 100 | 5.26 | > 100 | 5.06 |  |
| COC(=O)C1=C(CN2CCOCC2)NC(c2ccccn2)=NC12CCc1ccccc12 (stereo not shown) [Compound 89] |  |  |  |  | > 100 | 6.33 | > 100 | 6.22 |  |
| COC(=O)C1=C(C)NC(c2ccccn2)=NC12CCc1ccccc12 (stereo not shown) [Compound 90] |  |  |  |  | > 50 | 4.64 | > 50 | 5.24 |  |
| COC(=O)C1=C(CN2CCOCC2)NC(c2ncc(F)cc2F)=NC12CC(C)(C)c1ccccc12 (stereo not shown) [Compound 93] |  |  |  |  | 41.5 | 4.09 | > 100 | 4.27 |  |
| COC(=O)C1=C(CN2CCOCC2)NC(c2ccccn2)=NC12CCc1ccc(F)cc12 (stereo not shown) [Compound 96] |  |  |  |  | > 100 | 6.03 | 97 | 6.02 |  |
| COC(=O)C1=C(C)NC(c2ncc(F)cc2F)=NC12CCc1c2ccc(F)c1F (stereo not shown) [Compound 100] |  |  |  |  | > 100 | 6.30 | > 100 | 6.26 |  |
| COC(=O)C1=C(CN2CCOCC2)NC(c2ncc(F)cc2F)=NC12CCc1c2ccc(F)c1F (stereo not shown) [Compound 101] |  |  |  |  | > 25 | 7.14 | > 50 | > 7.01 |  |
| COC(=O)C1=C(C)NC(c2ncc(F)cc2F)=NC12c1ccccc1OC2(F)F (stereo not shown) [Compound 106] |  |  |  |  | > 100 | < 4.60 | > 25 | 4.01 |  |
| COC(=O)C1=C(CN2CCOCC2)NC(c2ccccn2)=NC12c1ccccc1CC2(F)F (stereo not shown) [Compound 110] |  |  |  |  | > 100 | 5.21 | > 50 | 4.97 |  |
| COC(=O)C1=C(C)NC(c2ccccn2)=NC12c1ccccc1CC2(F)F (stereo not shown) [Compound 111] |  |  |  |  | > 100 | < 4.30 | > 50 | 4.09 |  |
| COC(=O)C1=C(CN2CCOCC2)NC(c2ccccn2)=NC12C(F)=Cc1ccccc12 (stereo not shown) [Compound 112] |  |  |  |  | > 100 | 6.39 | > 50 | 6.20 |  |
| COC(=O)C1=C(C)NC(c2ncc(F)cc2F)=NC12c1ccccc1CC2(F)F (stereo not shown) [Compound 115] |  |  |  |  | > 100 | < 4.60 | > 25 | < 4.00 |  |
| COC(=O)C1=C(C)NC(c2ncc(F)cc2F)=NC12C(=O)N(C)c1cc(F)ccc12 (stereo not shown) [Compound 118] |  |  |  |  | > 100 | < 4.30 | > 50 | 4.39 |  |
| COC(=O)C1=C(CN2CCOCC2)NC(c2ccccn2)=NC12c1ccccc1OC2(F)F (stereo not shown) [Compound 124] |  |  |  |  | 48.4 | 5.62 | > 25 | 4.89 |  |
